Laboratory results from patent US9051296B2, “Aryl carboxamide derivatives as TTX-S blockers” (RaQualia Pharma Inc., priority 2009, dated 2015).
Where two headings read alike, the source gives them in different places.

Experiments:
human Nav1.7 channels = biological target: T1, human Nav1.7 channels (Homo sapiens, UniProt Q15858); assay: FRET Assay (Method A), human Nav1.7; format: cell-based
T1 construct: expressed in transfected cells; host or cells: CHO
Experimental: (§1) The ability of the aryl substituted carboxamid derivatives of the formula (I) to inhibit the NaV1.3, Nav1.7 and Nav1.5 channels was measured by Fluorescence Resonance Energy Transfer (FRET) assay and electrophysiology assay described below.
(§2) This screen was used to determine the effects of compounds on human NaV1.3, human Nav1.7, and human Nav1.5 channels, utilising the cell imaging technology by Hamamatsu Photonics's Functional Drug Screening System (FDSS). The change of membrane potential was monitored with fluorescent membrane potential dye pair, oxonol (DiSBAC2(3)) and coumarin (CC2-DMPE), using FRET technology.
CHO cells expressing human NaV1.7 channels were grown in T225 flasks, in a 5% CO2 humidified incubator to about 80% confluence. Media composition consisted of HAM/F12 with Glutamax I, 10% FCS, 100 units/ml Penicillin and 100 microgram/ml Hygromycin.
Protocol: • Seeded each cell lines (1.5×10^4 cells/well) into poly-D-lysine coated 384-well plates prior to experimentation. • Incubated at 37° C. in 5% CO2 for 24 hours. • Washed each well with buffer #1 (140 mM NaCl, 4.5 mM KCl, 10 mM D-Glucose, 2 mM CaCl2, 1 mM MgCl2, 10 mM HEPES, pH 7.4 adjusted with NaOH) twice. • Added 1st loading solution containing 5 microM CC2-DMPE and 0.02% Pluronic F-127 in buffer #1. • Incubated the plate at room temperature in dark for 0.5 hours. • Washed each well with buffer #2 (160 mM Choline, 10 mM D-Glucose, 0.1 mM CaCl2, 1 mM MgCl2, 10 mM HEPES, pH 7.4 adjusted with KOH) twice. • Added 2nd loading solution containing 15 microM DiSBAC2(3), 0.5 mM VABSC-1, 10 microM veratridine and 0.004% Pluronic F-127 in buffer #2. • Added compound solutions into the assay plate for 30 minutes under the dark at room temperature. • Measured the activity by FDSS.
(§3) The data were analyzed and reported as normalized ratios of intensities measured in the 465 nm and 575 nm channels. […]
(§4) “FI465B”=the mean of fluorescence intensity as baseline (before Na+ ligand addition) at 465 nm
“FI575B”=the mean of fluorescence intensity as baseline (before Na+ ligand addition) at 575 nm […]

Human HERG = biological target: T2, Human HERG (Homo sapiens, UniProt Q12809); assay: Human dofetilide binding assay
T2 construct: expressed in transfected cells; host or cells: HEK293S (membrane homogenate)
Experimental: Human Dofetilide Binding Assay
Human HERG transfected HEK293S cells were prepared and grown in-house. The collected cells were suspended in 50 mM Tris-HCl (pH 7.4 at 4° C.) and homogenized using a hand held Polytron PT 1200 disruptor set at full power for 20 sec on ice. The homogenates were centrifuged at 48,000×g at 4° C. for 20 min. The pellets were then resuspended, homogenized, and centrifuged once more in the same manner. The final pellets were resuspended in an appropriate volume of 50 mM Tris-HCl, 10 mM KCl, 1 mM MgCl2 (pH 7.4 at 4° C.), homogenized, aliquoted and stored at −80° C. until use. An aliquot of membrane fractions was used for protein concentration determination using BCA protein assay kit (PIERCE) and ARVOsx plate reader (Wallac). Binding assays were conducted in a total volume of 30 microL in 384-well plates. The activity was measured by PHERAstar (BMG LABTECH) using fluorescence polarization technology. Ten microL of test compounds were incubated with 10 microL of fluorescence ligand (6 nM Cy3B tagged dofetilide derivative) and 10 microL of membrane homogenate (6 microg protein) for 120 minutes at room temperature. Nonspecific binding was determined by 10 microM E4031 at the final concentration.

human NaV1.3 channels = biological target: T3, human NaV1.3 channels (Homo sapiens, UniProt Q9NY46); assay: FRET Assay (Method A), human NaV1.3; format: cell-based; conditions: read-out: against Nav1.3 in FRET Assay (Method A)
T3 construct: expressed in transfected cells; host or cells: HEK293
Experimental: as §1
as §2, with “technology. […]” for “technology.”
as §3, §4
“FI575B”=the mean of fluorescence intensity as baseline (before Na+ ligand addition) at 575 nm
“FI465Max”=maximum fluorescence intensity at 465 nm after Na+ stimulation
“FI575 Min”=minimum fluorescence intensity at 575 nm after Na+ stimulation
This analysis was performed using a computerized specific program designed for FDSS generated data. Fluorescence ratio values were plotted using XLfit to determine an IC50 value for each compound.

[1] = Table 5, method A or B not stated, read-out: IC50 in the Nav1.7 FRET Assay

T1 sequence (Q15858 whole entry): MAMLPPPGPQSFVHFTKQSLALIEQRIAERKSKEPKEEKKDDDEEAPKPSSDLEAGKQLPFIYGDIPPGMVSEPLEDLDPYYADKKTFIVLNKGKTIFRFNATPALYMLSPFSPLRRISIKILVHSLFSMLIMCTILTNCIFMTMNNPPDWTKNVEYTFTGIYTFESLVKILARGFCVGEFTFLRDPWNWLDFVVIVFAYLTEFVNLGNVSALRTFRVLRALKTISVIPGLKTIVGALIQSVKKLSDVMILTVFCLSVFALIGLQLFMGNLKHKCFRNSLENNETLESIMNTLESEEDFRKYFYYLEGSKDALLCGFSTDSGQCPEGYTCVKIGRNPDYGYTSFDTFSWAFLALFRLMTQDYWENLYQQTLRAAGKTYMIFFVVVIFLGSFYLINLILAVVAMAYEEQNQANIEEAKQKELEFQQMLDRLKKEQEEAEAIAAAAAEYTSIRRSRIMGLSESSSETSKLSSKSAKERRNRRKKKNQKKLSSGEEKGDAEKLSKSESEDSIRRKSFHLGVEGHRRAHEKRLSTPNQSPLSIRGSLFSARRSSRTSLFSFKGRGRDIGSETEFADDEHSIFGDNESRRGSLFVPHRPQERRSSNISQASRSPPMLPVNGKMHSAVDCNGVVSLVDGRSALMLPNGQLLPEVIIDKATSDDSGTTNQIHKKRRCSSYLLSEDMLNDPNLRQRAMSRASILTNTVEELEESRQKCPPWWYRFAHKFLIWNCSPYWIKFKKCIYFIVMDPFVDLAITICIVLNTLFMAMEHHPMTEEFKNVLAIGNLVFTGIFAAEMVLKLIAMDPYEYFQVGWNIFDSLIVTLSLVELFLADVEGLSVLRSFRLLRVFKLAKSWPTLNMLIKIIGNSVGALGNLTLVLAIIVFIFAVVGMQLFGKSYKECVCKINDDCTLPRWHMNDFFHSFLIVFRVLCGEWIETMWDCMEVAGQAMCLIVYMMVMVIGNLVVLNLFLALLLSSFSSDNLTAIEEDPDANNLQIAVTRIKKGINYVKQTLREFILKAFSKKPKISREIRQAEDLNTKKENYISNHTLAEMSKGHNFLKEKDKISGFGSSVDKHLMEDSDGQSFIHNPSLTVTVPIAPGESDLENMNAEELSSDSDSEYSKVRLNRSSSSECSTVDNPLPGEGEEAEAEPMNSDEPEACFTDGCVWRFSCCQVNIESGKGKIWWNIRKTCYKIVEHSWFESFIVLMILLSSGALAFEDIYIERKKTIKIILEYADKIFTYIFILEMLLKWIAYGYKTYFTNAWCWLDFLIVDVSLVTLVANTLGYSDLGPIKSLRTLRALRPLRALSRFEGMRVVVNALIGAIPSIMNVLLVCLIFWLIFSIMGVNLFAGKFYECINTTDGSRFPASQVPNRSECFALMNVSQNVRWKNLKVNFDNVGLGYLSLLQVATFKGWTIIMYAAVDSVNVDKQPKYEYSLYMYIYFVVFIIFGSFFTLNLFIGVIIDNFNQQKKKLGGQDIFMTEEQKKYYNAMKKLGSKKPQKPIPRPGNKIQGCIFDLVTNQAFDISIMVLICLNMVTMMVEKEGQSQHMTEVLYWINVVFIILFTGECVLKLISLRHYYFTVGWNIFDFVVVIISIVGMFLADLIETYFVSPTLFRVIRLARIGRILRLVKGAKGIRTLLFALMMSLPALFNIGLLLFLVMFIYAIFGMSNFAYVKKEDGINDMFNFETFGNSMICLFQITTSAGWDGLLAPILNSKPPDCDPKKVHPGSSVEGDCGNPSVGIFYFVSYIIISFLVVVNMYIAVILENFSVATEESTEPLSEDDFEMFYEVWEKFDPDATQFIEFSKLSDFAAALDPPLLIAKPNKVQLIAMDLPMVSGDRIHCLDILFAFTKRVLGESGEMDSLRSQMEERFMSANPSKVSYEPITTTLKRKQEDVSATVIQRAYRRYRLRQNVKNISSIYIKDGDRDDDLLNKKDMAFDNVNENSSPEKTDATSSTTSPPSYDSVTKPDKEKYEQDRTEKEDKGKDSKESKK
T2 sequence (Q12809 whole entry): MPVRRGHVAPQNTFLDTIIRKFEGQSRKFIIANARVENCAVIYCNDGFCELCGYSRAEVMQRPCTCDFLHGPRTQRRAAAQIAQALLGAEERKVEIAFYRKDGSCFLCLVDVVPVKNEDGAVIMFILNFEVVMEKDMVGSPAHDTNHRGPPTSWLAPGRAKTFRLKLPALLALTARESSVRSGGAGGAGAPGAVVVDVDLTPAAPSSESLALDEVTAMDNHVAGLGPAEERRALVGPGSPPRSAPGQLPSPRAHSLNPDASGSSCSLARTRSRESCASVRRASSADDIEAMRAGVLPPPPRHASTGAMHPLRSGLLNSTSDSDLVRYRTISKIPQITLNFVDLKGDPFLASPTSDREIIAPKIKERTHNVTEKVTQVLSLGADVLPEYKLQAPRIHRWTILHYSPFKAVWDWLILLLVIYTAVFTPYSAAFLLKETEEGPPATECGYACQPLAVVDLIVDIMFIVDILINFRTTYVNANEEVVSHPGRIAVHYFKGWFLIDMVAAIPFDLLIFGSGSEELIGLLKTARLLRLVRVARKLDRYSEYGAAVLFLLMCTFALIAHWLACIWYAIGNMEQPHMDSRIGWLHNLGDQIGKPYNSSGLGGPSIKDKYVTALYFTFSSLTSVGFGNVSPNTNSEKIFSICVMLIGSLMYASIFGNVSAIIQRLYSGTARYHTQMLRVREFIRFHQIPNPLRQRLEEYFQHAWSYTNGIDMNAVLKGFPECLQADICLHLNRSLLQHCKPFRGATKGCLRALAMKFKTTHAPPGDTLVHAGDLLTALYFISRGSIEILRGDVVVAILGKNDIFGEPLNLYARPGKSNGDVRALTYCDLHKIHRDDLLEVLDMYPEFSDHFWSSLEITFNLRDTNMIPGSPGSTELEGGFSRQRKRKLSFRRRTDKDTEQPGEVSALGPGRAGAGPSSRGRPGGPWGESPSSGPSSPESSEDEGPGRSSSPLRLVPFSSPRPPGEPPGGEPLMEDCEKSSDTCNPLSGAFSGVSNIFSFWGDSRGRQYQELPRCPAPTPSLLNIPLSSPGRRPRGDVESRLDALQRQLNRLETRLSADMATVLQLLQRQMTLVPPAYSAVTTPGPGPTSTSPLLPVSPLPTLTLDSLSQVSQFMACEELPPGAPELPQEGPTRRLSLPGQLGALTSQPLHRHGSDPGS
T3 sequence (Q9NY46 whole entry): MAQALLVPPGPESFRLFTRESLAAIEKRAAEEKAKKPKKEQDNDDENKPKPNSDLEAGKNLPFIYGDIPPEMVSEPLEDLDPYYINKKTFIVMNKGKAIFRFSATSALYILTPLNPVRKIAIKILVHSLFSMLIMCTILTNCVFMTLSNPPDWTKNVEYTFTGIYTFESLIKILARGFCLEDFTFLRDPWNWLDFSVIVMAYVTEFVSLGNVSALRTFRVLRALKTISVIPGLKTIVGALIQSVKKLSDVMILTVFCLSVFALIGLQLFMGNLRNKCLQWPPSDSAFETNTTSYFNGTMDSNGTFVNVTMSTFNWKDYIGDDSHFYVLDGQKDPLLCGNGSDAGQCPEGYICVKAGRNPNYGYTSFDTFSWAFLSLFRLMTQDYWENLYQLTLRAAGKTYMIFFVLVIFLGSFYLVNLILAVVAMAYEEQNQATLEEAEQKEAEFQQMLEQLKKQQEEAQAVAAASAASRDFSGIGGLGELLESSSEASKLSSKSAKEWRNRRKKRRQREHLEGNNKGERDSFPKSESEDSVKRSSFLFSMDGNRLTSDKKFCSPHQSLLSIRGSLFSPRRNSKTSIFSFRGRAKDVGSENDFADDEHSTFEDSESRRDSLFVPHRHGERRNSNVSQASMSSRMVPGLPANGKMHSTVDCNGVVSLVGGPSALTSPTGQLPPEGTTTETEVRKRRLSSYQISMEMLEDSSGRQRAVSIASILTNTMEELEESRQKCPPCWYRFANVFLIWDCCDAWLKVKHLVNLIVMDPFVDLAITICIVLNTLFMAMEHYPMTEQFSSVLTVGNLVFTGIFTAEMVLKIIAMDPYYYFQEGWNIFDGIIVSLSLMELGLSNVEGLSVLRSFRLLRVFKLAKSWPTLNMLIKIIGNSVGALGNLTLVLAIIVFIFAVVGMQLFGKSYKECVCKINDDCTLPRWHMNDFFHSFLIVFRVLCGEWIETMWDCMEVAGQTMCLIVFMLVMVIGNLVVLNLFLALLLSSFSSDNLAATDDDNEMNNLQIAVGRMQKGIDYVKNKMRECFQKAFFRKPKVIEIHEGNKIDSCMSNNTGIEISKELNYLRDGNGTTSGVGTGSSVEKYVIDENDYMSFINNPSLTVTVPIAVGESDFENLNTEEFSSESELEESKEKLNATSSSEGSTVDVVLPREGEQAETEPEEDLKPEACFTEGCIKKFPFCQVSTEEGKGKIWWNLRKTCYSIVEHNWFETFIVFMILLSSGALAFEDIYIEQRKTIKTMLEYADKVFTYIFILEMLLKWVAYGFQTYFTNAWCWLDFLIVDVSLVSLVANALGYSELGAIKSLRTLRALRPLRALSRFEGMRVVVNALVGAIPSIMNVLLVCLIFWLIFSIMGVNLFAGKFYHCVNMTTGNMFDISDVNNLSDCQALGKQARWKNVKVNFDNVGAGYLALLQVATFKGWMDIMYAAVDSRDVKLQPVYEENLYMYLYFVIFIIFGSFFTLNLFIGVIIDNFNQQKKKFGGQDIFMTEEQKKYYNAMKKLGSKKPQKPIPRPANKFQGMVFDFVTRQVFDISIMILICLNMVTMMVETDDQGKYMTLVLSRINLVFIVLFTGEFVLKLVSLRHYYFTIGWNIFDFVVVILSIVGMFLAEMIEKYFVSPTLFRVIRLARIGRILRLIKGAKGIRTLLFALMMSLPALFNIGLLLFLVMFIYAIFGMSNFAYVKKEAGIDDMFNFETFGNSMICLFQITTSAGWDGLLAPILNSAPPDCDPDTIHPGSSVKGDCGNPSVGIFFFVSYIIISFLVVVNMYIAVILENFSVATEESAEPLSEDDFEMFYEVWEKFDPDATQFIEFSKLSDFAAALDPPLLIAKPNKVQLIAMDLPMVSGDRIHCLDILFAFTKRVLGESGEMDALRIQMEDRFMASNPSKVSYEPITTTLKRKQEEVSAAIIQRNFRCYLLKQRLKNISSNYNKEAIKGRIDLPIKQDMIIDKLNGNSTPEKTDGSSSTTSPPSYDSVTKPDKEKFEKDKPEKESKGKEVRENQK

IC50 (human Nav1.7 channels; [1]) [nM]	IC50 (human NaV1.3 channels) [nM]	IC50 (human Nav1.7 channels; read-out: against Nav1.7 in FRET Assay (Method A)) [nM]	SMILES	IC50 (Human HERG) [nM]
360	–	–	O=C(c1cnc2ccccc2c1)N1CCC(Oc2ccc(Cl)cc2)CC1 [Example 10, (4-(4-chlorophenoxy)piperidin-1-yl)(quinolin-3-yl) methanone]	7910
–	> 30000	15000	O=c1[nH]ccnc1CN1CCC(COc2ccccc2)CC1 [Example 198 in WO 2003/084948, 3-((4-(phenoxymethyl)piperidin-1-yl)methyl)pyrazin-2(1H)-one, reference compound]	–
470	–	–	Clc1ccc(OC2CCN(Cc3cnc4ccccc4c3)CC2)cc1 [Example 726]	280
